Measured values as given in patent US6946447B2, “MDM2-specific antisense oligonucleotides” (Hybridon, Inc., priority 1997, dated 2005).
Strand notation (5' to 3'): a small letter for the sugar, then the base; units joined by * are phosphorothioate-linked, units joined directly phosphodiester-linked; [ ] holds rarer units or linkages, { } end groups; capitals alone tell only the bases. d = 2'-deoxy (DNA)

Columns and labels:
[1] = system: DNA synthesis; assay: DNA synthesis by BrdU incorporation normalized to viable cells; format: cell-based; conditions: cell lines that do not undergo significant apoptosis, 100 nM, 20 hr (FIG. 15)
[2] = system: p53; assay: BP100-luciferase reporter in several representative cell lines; format: cell-based; conditions: stably transfected cell lines, 20 hr (FIG. 13)
Procedure: Cells stably transfected with the BP100-luciferase reporter were treated with antisense oligonucleotides at indicated concentrations for 20 hr. Luciferase activity/unit protein was determined and the magnitude of induction was shown compared to cells not treated with oligonucleotides. AS2M4: a 4 bp mismatch control of AS5-2. K: an unrelated oligonucleotide.
In order to determine whether the p53 protein that accumulates after inhibition of MDM2 is functionally active, a p53-responsive BP100-luciferase reporter plasmid was transfected into several representative cell lines. Stably transfected cells were then treated with AS5-2 or control oligonucleotides. […] The magnitude of p53 transcription activation is consistent with the fact that most of the p53 accumulation occurs in the nucleus, which has a low basal level of p53.

[3] = system: p53; assay: Nuclear p53 level by immunofluorescence staining with Pab1801; format: cell-based, human; conditions: MCF-7 cells, 200 nM, 20 hr
[4] = system: MDM2; assay: MDM2 protein level by immunoprecipitation/Western blot in oligonucleotide-treated cells; format: cell-based, human; conditions: JAR cells, 18 h, Lipofectin 7 μg/ml, Western blot (FIG. 2A)

AS2M4: 4 bp mismatch control of AS5-2, 5′-TGACTCTTGTCCTTACTCAC-3′; SEQ ID NO: 26 (DNA dT*dG*dA*dC*dT*dC*dT*dT*dG*dT*dC*dC*dT*dT*dA*dC*dT*dC*dA*dC)
rate of DNA synthesis (BrdU incorporation) [1]: weaker
induction of p53 transcription function [2]: significantly reduced efficiency

K: control oligonucleotide complementary to an ion channel, 5′-CAGAGCCTTCATCTTCCCAG-3′; SEQ ID NO:6 (chemistry not given here)
rate of DNA synthesis (BrdU incorporation) [1]: not observed
nuclear p53 staining [3]: did not induce p53
inhibition of MDM2 expression [4]: not observed
